Tests used:
Assay in all cases: biochemical
Design in all cases: DiscoverX KINOMEscan scanMAX competition binding panel, single concentration, percent of control; remaining binding: dose or concentration left out as unconfirmed
Conditions in all cases: KINOMEscan binding, percent of control; read-out: Table S4_SCANMAX REPORT - related to Fig. 1 / Percent Control
YSK1 = molecular target: T1, YSK1 (Homo sapiens, UniProt O00506)
T1 construct: gene STK25

KIT(A829P) = KIT(A829P) (Homo sapiens, UniProt P10721, A829P)
KIT(A829P), sequence (P10721 whole entry A829P): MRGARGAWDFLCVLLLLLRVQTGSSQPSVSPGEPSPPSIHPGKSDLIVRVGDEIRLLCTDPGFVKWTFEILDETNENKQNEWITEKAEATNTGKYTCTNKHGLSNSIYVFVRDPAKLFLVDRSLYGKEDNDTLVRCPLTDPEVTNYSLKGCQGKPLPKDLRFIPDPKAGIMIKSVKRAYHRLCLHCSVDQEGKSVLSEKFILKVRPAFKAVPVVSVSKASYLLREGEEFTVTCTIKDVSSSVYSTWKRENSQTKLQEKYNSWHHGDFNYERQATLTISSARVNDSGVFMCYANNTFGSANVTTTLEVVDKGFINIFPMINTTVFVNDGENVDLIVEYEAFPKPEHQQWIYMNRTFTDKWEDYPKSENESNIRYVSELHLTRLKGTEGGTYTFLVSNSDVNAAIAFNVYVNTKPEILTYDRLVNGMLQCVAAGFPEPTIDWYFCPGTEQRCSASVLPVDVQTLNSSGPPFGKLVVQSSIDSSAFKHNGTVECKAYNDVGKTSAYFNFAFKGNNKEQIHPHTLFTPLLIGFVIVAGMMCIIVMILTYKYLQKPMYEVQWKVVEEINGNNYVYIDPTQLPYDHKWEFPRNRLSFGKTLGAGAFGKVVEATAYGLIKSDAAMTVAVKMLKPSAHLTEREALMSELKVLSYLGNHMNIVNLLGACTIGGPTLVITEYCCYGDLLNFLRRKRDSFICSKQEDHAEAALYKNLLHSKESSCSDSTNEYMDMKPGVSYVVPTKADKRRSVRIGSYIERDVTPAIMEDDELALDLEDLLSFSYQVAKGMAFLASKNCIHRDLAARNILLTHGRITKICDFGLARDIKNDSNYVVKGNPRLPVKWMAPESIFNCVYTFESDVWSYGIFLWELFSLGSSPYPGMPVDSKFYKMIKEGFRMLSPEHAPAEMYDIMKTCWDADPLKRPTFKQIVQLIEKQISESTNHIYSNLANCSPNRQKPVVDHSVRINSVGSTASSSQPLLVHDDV

S6K1 = molecular target: T2, S6K1 (Homo sapiens, UniProt P23443)
T2 construct: gene RPS6KB1

p38-beta = molecular target: T3, p38-beta (Homo sapiens, UniProt Q15759)
T3 construct: gene MAPK11
T3 sequence (Q15759 whole entry): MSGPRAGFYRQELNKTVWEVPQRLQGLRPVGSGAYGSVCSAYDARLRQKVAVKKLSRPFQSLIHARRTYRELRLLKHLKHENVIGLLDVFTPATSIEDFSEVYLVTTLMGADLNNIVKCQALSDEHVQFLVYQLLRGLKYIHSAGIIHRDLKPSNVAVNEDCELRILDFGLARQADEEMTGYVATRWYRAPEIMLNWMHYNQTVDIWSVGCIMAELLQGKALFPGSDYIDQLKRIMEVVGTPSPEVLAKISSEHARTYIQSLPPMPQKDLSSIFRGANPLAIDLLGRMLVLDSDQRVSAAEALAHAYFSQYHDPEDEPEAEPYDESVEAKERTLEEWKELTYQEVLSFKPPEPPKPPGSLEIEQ

TGFBR2 = TGFBR2 (Homo sapiens, UniProt P37173)
NEK11 = NEK11 (Homo sapiens, UniProt Q8NG66)
TNIK = TNIK (Homo sapiens, UniProt Q9UKE5)
TNIK, sequence (Q9UKE5 whole entry): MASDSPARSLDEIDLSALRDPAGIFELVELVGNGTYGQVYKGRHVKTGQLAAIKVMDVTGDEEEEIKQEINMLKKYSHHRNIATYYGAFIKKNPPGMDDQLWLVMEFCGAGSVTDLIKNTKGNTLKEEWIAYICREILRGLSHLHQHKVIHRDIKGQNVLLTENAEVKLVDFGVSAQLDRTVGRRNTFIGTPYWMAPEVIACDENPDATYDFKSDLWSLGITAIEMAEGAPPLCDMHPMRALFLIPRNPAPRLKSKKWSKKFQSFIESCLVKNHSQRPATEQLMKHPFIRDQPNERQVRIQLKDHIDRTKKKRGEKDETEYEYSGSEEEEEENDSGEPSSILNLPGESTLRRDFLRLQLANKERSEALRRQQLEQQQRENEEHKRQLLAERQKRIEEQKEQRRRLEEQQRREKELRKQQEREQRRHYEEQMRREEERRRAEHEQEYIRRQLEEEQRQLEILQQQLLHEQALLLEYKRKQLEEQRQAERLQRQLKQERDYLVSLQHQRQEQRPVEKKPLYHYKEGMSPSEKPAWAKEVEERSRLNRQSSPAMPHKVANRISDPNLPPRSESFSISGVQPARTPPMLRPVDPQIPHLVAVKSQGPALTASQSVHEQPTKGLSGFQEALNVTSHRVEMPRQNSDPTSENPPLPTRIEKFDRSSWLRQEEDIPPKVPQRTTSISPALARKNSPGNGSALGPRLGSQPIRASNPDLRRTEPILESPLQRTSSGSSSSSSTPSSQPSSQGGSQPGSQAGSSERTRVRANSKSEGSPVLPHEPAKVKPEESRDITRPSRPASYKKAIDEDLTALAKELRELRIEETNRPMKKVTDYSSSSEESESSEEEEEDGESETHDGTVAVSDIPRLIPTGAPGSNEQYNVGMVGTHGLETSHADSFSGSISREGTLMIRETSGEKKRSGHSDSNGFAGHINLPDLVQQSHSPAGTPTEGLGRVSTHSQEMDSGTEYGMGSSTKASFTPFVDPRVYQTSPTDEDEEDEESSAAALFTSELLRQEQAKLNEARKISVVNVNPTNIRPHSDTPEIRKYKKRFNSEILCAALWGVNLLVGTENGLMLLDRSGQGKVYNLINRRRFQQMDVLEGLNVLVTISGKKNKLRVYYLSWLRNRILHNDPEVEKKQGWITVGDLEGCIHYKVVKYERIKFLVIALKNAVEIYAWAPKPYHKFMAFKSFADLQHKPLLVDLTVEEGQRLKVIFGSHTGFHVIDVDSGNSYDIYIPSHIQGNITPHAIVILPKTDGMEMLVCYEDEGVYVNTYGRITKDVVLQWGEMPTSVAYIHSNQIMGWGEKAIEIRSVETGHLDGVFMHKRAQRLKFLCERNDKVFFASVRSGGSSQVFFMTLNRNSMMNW

PLK2 = PLK2 (Homo sapiens, UniProt Q9NYY3)
PKAC-alpha = molecular target: T4, PKAC-alpha (Homo sapiens, UniProt P17612)
T4 construct: gene PRKACA

MAP4K4 = MAP4K4 (Homo sapiens, UniProt O95819)
ADCK3 = molecular target: T5, ADCK3 (Homo sapiens, UniProt Q8NI60)
T5 construct: gene COQ8A

GCN2(Kin.Dom.2,S808G) = molecular target: T6, GCN2(Kin.Dom.2,S808G) (Homo sapiens, UniProt Q9P2K8, S808G)
T6 construct: gene EIF2AK4; Kin.Dom.2

CSNK2A1 = CSNK2A1 (Homo sapiens, UniProt P68400)
STK36 = STK36 (Homo sapiens, UniProt Q9NRP7)
STK36, sequence (Q9NRP7 whole entry): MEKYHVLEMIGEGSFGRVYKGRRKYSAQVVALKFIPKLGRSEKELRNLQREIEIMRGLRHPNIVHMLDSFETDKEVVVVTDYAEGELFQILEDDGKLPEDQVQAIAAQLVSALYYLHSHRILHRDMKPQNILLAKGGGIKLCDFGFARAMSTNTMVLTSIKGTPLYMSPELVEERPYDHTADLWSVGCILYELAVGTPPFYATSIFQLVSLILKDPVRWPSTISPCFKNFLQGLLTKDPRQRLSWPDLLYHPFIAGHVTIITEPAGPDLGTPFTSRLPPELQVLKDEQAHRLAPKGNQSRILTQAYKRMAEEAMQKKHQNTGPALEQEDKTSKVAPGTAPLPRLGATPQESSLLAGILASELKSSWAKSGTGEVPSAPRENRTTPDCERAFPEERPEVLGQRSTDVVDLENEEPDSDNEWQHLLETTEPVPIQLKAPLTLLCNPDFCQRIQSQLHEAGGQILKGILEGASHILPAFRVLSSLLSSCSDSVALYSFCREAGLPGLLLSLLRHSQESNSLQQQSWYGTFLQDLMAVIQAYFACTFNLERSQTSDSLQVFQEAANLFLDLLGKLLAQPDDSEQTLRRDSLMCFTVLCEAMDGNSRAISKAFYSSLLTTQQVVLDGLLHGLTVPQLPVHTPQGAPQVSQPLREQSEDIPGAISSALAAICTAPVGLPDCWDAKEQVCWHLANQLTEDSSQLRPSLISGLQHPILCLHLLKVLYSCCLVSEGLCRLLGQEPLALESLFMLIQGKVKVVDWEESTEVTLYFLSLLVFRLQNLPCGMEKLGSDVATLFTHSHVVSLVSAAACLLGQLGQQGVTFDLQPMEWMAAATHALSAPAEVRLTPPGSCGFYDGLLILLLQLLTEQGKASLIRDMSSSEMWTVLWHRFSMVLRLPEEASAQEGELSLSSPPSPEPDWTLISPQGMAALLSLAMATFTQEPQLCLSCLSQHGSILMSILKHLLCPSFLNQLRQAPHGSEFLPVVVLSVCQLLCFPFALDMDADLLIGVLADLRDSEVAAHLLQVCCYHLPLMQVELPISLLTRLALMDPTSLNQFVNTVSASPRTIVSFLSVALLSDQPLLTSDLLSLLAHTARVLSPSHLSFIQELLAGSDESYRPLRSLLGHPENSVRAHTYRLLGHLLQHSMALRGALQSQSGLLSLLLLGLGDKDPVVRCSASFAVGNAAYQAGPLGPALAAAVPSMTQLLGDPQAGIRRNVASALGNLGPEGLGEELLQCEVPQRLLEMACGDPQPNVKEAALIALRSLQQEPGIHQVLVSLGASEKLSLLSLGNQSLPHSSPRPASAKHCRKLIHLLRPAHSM

NEK1 = NEK1 (Homo sapiens, UniProt Q96PY6)
HIPK4 = HIPK4 (Homo sapiens, UniProt Q8NE63)
[1] = molecular target: T7, RSK1(Kin.Dom.1-N-terminal) (Homo sapiens, UniProt Q15418)
T7 construct: gene RPS6KA1; Kin.Dom.1-N-terminal
T7 sequence (Q15418 whole entry): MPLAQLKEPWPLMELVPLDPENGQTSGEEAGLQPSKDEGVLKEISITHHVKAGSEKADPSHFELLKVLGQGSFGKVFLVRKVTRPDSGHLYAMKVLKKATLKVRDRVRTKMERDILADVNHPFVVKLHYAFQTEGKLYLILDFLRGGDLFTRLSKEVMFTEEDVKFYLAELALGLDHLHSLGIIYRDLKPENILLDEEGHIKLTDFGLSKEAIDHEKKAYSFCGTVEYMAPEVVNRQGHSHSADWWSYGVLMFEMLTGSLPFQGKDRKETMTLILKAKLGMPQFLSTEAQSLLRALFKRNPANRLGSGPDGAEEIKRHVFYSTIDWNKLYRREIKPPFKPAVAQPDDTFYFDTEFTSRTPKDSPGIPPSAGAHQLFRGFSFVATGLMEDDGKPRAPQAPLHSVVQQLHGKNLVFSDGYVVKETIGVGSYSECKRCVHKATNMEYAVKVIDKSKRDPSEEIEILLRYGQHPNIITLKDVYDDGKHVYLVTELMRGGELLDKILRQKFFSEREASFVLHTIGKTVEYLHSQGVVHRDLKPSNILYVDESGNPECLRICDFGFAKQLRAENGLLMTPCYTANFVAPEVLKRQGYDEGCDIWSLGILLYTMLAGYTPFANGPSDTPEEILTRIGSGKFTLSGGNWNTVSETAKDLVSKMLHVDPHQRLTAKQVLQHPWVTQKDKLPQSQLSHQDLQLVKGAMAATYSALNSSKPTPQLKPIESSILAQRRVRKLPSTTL

CAMK1 = CAMK1 (Homo sapiens, UniProt Q14012)

c1ccc2c(c1)Sc1ccccc1N2CCN1CCOCC1 [J54]
remaining binding (YSK1): 97%
remaining binding (KIT(A829P)): 94%
remaining binding (S6K1): 100%
remaining binding (p38-beta): 100%
remaining binding (TGFBR2): 99%
remaining binding (NEK11): 100%
remaining binding (TNIK): 98%
remaining binding (PLK2): 100%
remaining binding (PKAC-alpha): 98%
remaining binding (MAP4K4): 66%
remaining binding (ADCK3): 100%
remaining binding (GCN2(Kin.Dom.2,S808G)): 100%
remaining binding (CSNK2A1): 79%
remaining binding (STK36): 67%
remaining binding (NEK1): 95%
remaining binding (HIPK4): 90%
remaining binding [1]: 100%
remaining binding (CAMK1): 97%

From article PMC7486443, “Generation of Phenothiazine with Potent Anti-TLK1 Activity for Prostate Cancer Therapy” (iScience, 2020)
